Where a SMILES comes first, the peptide text is derived from it. Where no end group is shown, it is not given here. [ ]: non-standard residue; d: D form. d(hArg(Et2)) = CCN=C(NCC)NCCCC[C@@H](N)C(=O)O; hArg(Et2) = CCN=C(NCC)NCCCC[C@H](N)C(=O)O; dPhe(4-Cl) = N[C@H](Cc1ccc(Cl)cc1)C(=O)O; d2Nal = N[C@H](Cc1ccc2ccccc2c1)C(=O)O; d3Pal = N[C@H](Cc1cccnc1)C(=O)O

One series concerns male germ cells. Description: Gonadotropin deprivation model: testis apoptotic DNA fragmentation. The series is classed as in vivo, rat. The protocol: (§1) Male Sprague-Dawley rats at 28 days of age were treated subcutaneously with GnRH antagonist (250 μg/kg/day) to suppress pituitary gonadotropin secretion. […] Animals were killed 5 days after initial treatment and organ weight determined. Testes were stored at −70° C. before RNA or DNA extraction or fixed in Bouin's solution for in situ labeling of DNA ends.
DNA from whole testis was isolated and quantitated with spectrophotometry at 260 nm. Aliquots of DNA (500 ng) from each sample were labeled at 3′-ends with 32P-dideoxy-ATP (3,000 Ci/mmol: Amersham. Arlington Heights, Ill.) using terminal transferase (25 U/sample; Boehringey-Mannheim, Indianapolis, Ind.) as described. Labeled samples were fractionated through 2% agarose gels. After electrophoresis, gels were dried for 2 h in a slab-gel dryer without heat and exposed to Kodak X-OMAT AR films (Eastman Kodak Co., Rochester, N.Y.) at −70 C. After autoradiography, portions of each lane corresponding to DNA less than 10 kilobases (kb) were isolated and counted in a y-spectrometer for estimating the degree of intenucleosomal DNA fragmentation. For in situ DNA 3′-end labeling, fixed testicular tissues were embedded in paraffin, and cut in 3 μm sections. To detect apoptotic DNA fragmentation, the in situ cell death detection kit (Roche Diagnostics, Mannheim, Germany) was used according to manufacturer's instruction and sections counterstained with hematoxylin.

For a further series, the system named is INSL3 message. Put plainly: Gonadotropin deprivation model: testis INSL3 mRNA (Northern blot). The series is classed as in vivo, rat. The conditions noted are these: FIG. 4B. Here is the method: as §1
A further series relates to testis. The format is in vivo, rat. Here is the method:
C) Analysis of apoptotic DNA fragmentation in testes using 3′-end DNA labeling with the terminal transferase, followed by gel fractionation and autoradiography. D) In situ staining of apoptotic DNA fragmentation in seminiferous tubules using the TUNNEL method.
as §1

The test system of another series is cumulus-enclosed oocytes. Description: Germinal vesicle breakdown in cultured cumulus-enclosed oocytes. The format is cell-based, rat. The settings on record: for oocyte maturation (germinal vesicle breakdown): cultured cumulus-enclosed oocytes from preovulatory follicles, FIG. 1D. Here is the method: (§2) Cumulus-enclosed oocytes (CEO) were collected and cultured as described (Vaknin et al. PMID: 11133687). Briefly, female rats at 26 d of age were injected with 15 IU pregnant mare serum gonadotropin (PMSG). After 48-50 h, ovaries were dissected in Leivovitz's L-15 medium (Invitrogen Corp., Carlsbad, Calif.) supplemented with 5% fetal bovine serum and 100 μg/ml of penicillin and streptomycin. The CEOs were collected by puncturing the largest ovarian follicles in the L15 medium containing 0.25 mM of MIX within 20 min, washed twice in L15 medium without MIX and transfer to test medium. The CEO were cultured with or without different doses of rat INSL3 in L15 medium without both FBS and IBMX. For controls, the CEOs were cultured in L15 medium with IBMX. At the end of culture, the occurrence of germinal vesicle breakdown (GVBD) in oocyte was examined after removing cumulus cells surrounding CEO by a small-bore pipette under Hoffman modulation contrast microscopy (Nikon Inc., Tokyo, Japan). For preovulatory follicles, follicles were excised from the ovary after PMSG treatment for 48 h. The follicles, 20-30 per vial, were cultured with or without different doses of rat INSL3 or LH in L15 medium without FBS. The vials were flushed at the start of the culture with O2/N2 (1/1) and cultured at 37C with gently shaking. After culture, individual CEO was dissected from each follicle to examine the occurrence of GVBD. For cAMP determination, 20 to 30 denuded oocytes were cultured with or without rat INSL3 (10 nM) in L15 medium containing 10 μM of cilostamide with or without 50 μM of forskolin. After treatment, oocytes were collected in 2 μl of medium, frozen and thawed to break the cells before acetylation of samples with triethylamine and acetic anhydride (3:1). Intra-oocyte cyclic AMP levels were determined by radioimmunoassay as previously described (Davoren, Hsuch, 1985).

Series [1] deals with oocytes of preovulatory follicles. Put plainly: In vivo oocyte maturation after intrabursal injection in PMSG-primed rats. On the set-up: species or system rat. The conditions noted are these: FIG. 3C. Here is the method: To study the effect of INSL3 on oocyte maturation in vivo, intrabursal injection was performed (Vaknin et al. PMID: 11133687). Immature PMSG-treated rats were lightly anesthetized by ether, and one of the ovaries was exteriorized through a small lumbosacral incision. Rat INSL3, dissolved in 100 μl of PBS, was injected through a 30-gauge needle threaded into the ovarian bursa via the adjoining fat pad. After injection, the ovary was replaced into the abdominal cavity, and skin was clipped. Eight hours later, CEOs were collected by puncturing the largest ovarian follicles to examine the occurrence of oocyte GVBD.

For the next series, the system named is preovulatory follicles. Put plainly: Oocyte maturation (GVBD) in cultured intact preovulatory follicles. The series is classed as cell-based, rat. The protocol: as §2, with “Briefly,” for “Cumulus-enclosed oocytes (CEO) were collected and cultured as described (Vaknin et al. PMID: 11133687). Briefly,”, “For preovulatory follicles, follicles were excised from the ovary after PMSG treatment for 48 h. The follicles, 20-30 per vial, were cultured with or without different doses of rat INSL3 or LH in L15 medium without FBS.” left out, “(3:1).” for “(3:1). Intra-oocyte cyclic AMP levels were determined by radioimmunoassay as previously described (Davoren, Hsuch, 1985).”

The target of a further series is T1, recombinant LGR8 (Homo sapiens, UniProt Q8WXD0).
T1 construct: expressed in transfected cells; host or cells: human 293T cells, calcium phosphate transfection
The conditions noted are these: 293T cells expressing recombinant LGR8; cited from earlier work.

For series [2], the system named is seminiferous tubular cells. Put plainly: cAMP production by seminiferous tubular cells. The format is cell-based, rat. The conditions noted are these: FIG. 2D. A general note: Changes in cAMP serve as a functional read-out for many G protein-coupled receptors.
Procedure: Seminiferous tubular cells were treated with different hormones or forskolin (FSK) for 12 h before cAMP determination. Some cells were also pretreated with PT before hormonal treatment (filled circles) to suppress Gi activity. B: basal.
Seminiferous tubular cells were isolated by the method of Nagao (1989) In Vitro Cell Dev Biol 25:1088-1098, with modifications. Briefly, testes were decapsulated and incubated for 15 minutes in PBS containing 0.25% collagenase with occasional shaking. After collecting interstitial cells released from the preparation, seminiferous tubules were washed, and incubated with 0.25% trypsin to disperse tubular cells. The resulting cell suspension was filtered through 100 μm nylon mesh to remove cell aggregates and tissue debris, after which the tubular cells were collected by centrifugation.
Total cAMP in each well was measured in triplicate with primary cultured cells by a specific radioimmunoassay as previously described by Davoren and Hsuch (1985) Biol Reprod 33:37-52. All experiments were repeated at least four times.
The next series has as its system gubernacular cells. The conditions noted are these: cited from earlier work.
The next series deals with oocyte. Put plainly: Gonadotropin induction of ovulation with pertussis toxin co-treatment.

T1 sequence (Q8WXD0 whole entry): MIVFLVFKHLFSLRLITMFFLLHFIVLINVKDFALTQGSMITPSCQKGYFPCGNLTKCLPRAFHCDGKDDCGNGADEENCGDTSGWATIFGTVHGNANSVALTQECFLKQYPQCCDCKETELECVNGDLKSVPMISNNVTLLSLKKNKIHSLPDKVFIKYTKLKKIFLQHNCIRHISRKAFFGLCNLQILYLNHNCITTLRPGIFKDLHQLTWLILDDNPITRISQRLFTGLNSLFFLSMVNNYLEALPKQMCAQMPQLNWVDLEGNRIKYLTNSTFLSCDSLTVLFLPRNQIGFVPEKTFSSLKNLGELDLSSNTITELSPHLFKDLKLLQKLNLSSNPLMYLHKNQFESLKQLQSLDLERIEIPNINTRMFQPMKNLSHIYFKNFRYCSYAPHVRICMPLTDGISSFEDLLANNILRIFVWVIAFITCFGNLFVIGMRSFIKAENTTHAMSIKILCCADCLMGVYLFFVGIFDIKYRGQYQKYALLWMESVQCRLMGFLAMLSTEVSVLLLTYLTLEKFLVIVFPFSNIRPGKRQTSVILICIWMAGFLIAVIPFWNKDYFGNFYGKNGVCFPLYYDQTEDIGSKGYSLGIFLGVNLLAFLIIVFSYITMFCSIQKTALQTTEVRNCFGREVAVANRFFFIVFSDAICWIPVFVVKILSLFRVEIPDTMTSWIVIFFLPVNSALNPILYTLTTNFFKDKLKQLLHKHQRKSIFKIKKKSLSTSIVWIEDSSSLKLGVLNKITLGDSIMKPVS

As for `CCN=C(NCC)NCCCC[C@H](NC(=O)[C@H](CC(C)C)NC(=O)[C@@H](CCCCNC(=NCC)NCC)NC(=O)[C@H](Cc1ccc(O)cc1)NC(=O)[C@H](CO)NC(=O)[C@@H](Cc1cccnc1)NC(=O)[C@@H](Cc1ccc(Cl)cc1)NC(=O)[C@@H](Cc1ccc2ccccc2c1)NC(C)=O)C(=O)N1CCC[C@H]1C(=O)N[C@H](C)C(N)=O` [GnRH antagonist, ganirelix acetate] (Ac-[d2Nal][dPhe(4-Cl)][d3Pal]SY[d(hArg(Et2))]L[hArg(Et2)]P[dA]-NH2), the “in situ staining of DNA fragments in seminiferous tubules” value in the series on male germ cells (GnRH antagonist alone, FIG. 4D panel e) was “the majority of tubules showed labeled cells corresponding to meiotic pachytene spermatocytes and postmeiotic spermatids”. The “apoptotic DNA fragmentation in testis” value with male germ cells (GnRH antagonist alone, internucleosomal DNA fragmentation, FIG. 4C) is “increased apoptotic DNA fragmentation”. Also, the “testis INSL3 message levels” value in the series on INSL3 message is “decreased INSL3 message levels”. Also, the testis weight result with testis (immature rats, GnRH antagonist alone, five days, FIG. 4A) is recorded as “decreased testis weight”. Further, the “weight change in kidney or heart” value in the series with testis (rat, in vivo) was “no weight change in kidney or heart was detected”.

In the case of `CC(C)Cn1c(=O)n(C)c(=O)c2[nH]cnc21` [MIX, reference compound], the “oocyte maturation (germinal vesicle breakdown)” value with cumulus-enclosed oocytes was “completely blocked oocyte maturation”.

As to “INSL3: Insulin-like hormone superfamily member with B chain and A chain; rat INSL3 chemically synthesized; ligand of LGR8 (chain 1 QPPEARAKLCGHHLVRALVRVCGGPRWSPEA; chain 2 SVATNAVHRCCLTGCTQQDLLGLCPH; ends and bridges not checked; cysteine pairing not given here)”, in [1] (8 h after intrabursal injection), the “oocyte maturation (germinal vesicle breakdown in preovulatory follicles)” value is given as “induced oocyte maturation”. In addition, the follicle rupture entry in series [1] (intrabursal treatment) is “not follicle rupture”. Further, in the series with preovulatory follicles (intact preovulatory follicles, FIG. 1F), the oocyte maturation entry is recorded as “induced oocyte maturation in a dose-dependent manner”. Also, the cAMP production entry with recombinant LGR8 and with gubernacular cells was “stimulatory effects” in each case. For the same compound, the “apoptosis induced by GnRH antagonist (internucleosomal DNA fragmentation)” value with male germ cells (co-treatment with GnRH antagonist, FIG. 4C) is reported as “blocked apoptosis”. Also, the “in situ staining of DNA fragments in seminiferous tubules” value with male germ cells (co-treatment with GnRH antagonist, FIG. 4D panel f) is reported as “blocked the apoptosis-inducing action of the GnRH antagonist”. Moreover, the “basal cAMP production” value in series [2] (INSL3 alone, 12 h) is on record as “basal cAMP production was not affected”. Further, the “cAMP increases induced by forskolin” value in series [2] (INSL3 with forskolin, 12 h) was “prevented cAMP increases induced by forskolin in a dose-dependent manner”. Further, in series [2] (co-treatment of INSL3 with FSH), the “cAMP levels stimulated by FSH” value is listed as “did not alter cAMP levels”. Moreover, the “oocyte maturation (germinal vesicle breakdown)” value with cumulus-enclosed oocytes was “further augmented oocyte maturation in a dose-dependent manner”. In the series on cumulus-enclosed oocytes (time-course, cumulus-enclosed oocytes, FIG. 1E), the “time after culture at which augmentation of oocyte maturation was evident” value was 2 h. In the series with testis (co-treatment with GnRH antagonist, five days, FIG. 4A), the “effect on testis weight decrease caused by GnRH antagonist” value is recorded as “partially blocked”.

In the case of pertussis toxin, in the series with oocyte, the follicle rupture result is “without affecting follicle rupture” and the “gonadotropin induction of oocyte maturation” value is recorded as “blocks the gonadotropin induction of oocyte maturation”. Besides, in the series on preovulatory follicles (pertussis toxin with INSL3, FIG. 1G), the “effect on INSL3 induction of oocyte maturation” value is given as “partially blocked the INSL3 induction of oocyte maturation”. Further, in the series with preovulatory follicles (pertussis toxin with LH, FIG. 1G), the “effect on LH induction of oocyte maturation” value was “partially blocked the LH induction of oocyte maturation at lower (50 and 100 ng/ml), but not higher, doses of LH”. The “effect on the suppressive effect of INSL3 on cAMP” value in [2] (pertussis toxin pretreatment) was “suppressive effect of INSL3 was blocked”.

The values above are taken from US20050079180A1, “Manipulatin of oocyte maturation and male germ cell survival” (priority 2003, published 2005).
